This is an account of results in patent publication US8133474B2, “Sensors for fluorescence and magnetic resonance imaging” (Massachusetts Institute of Technology, priority 2006, dated 2012).

Series [1] can be described thus: Zinc-dependent MR relaxivity in buffered solutions. The class given is physicochemical. The note with it: for zinc-induced change of MR signal in buffered solution: 1 mM Zn^2+, 25 mM Pipes pH 7, T1-weighted 200 μM agent, T2-weighted 500 μM agent with 100 mM KCl; for zinc-induced T2 change at high ionic strength: 100 mM KCl, buffered solution. The protocol:
(§1) MRI samples prepared as described above were arrayed into microtiter plates and placed in a 40-cm-bore Avance 4.7 T MRI scanner (Bruker, Billerica, Mass.). Unused wells were filled with PBS, and imaging was performed on a 2-mm slice through the sample. A spin echo pulse sequence with multiecho acquisition was used. The TR was fixed for every acquisition, and the TE was in defined increments. For example, for TR=100 ms, TE varied from 10 to 80 ms, with a 10-ms increment. To adjust further the weight between T1 and T2, various TRs were applied and the TE increment was changed accordingly, if necessary. Data matrices of 512×128 points were acquired and zero-filled to 256 points in the second (phase encoding) dimension. Images were reconstructed and analyzed by using custom routines running in Matlab (Mathworks, Natick, Mass.).
Insertion of a paramagnetic manganese(III) ion into the porphyrin core of compound 1 rendered the resulting (DPA-C2)2-TPPS3Mn(III) complex (compound 2) an MRI contrast agent. The properties of compound 2 were investigated by using a spin echo pulse sequence to collect images at several echo times (TEs) in parallel. In some experiments, the repetition times (TRs) were varied so that both T1 and T2 could be evaluated. Multiwell plates were used for sample preparation, which allowed several conditions to be investigated in parallel. The well-studied MRI T1 agent, Mn-TPPS4, which contains a similar porphyrin platform as compound 2 but lacks a zinc-binding unit, was chosen as a reference compound.
The zinc-dependent MR relaxivity of compound 2 was first investigated in buffered solutions. Solutions of compound 2 or Mn-TPPS4 in 25 mM Pipes buffer at pH 7.0 were arrayed in microtiter plates. A spin echo pulse sequence was used to acquire an MRI image. […] Addition of 1 mM ZnCl2 to a 200 μM solution of compound 2 dissolved in 25 mM Pipes buffer at pH 7 slowed down the T1 relaxation. […] The T1 values of zinc-free and zinc-saturated solutions were determined at various concentrations of compound 2, from which T1 relaxivity (R1) values could be deduced.
The surrounding wells (not shown) were filled with PBS to maintain a homogenous magnetic field to mark the positions of the samples.
The zinc-induced T2 enhancement depended on the total concentration of compound 2.

For series [2], the system named is intracellular zinc in HEK-293 cells. In words: Cellular MR imaging of intracellular zinc, T1 and T2 of cell pellets. In kind it is cell-based. Conditions: for T2 of cell pellet, zinc-treated samples: then 200 μM Zn^2+. Here is the method:
as §1
To investigate zinc-induced relaxivity changes in compound 2 inside cells, cell pellets were prepared with and without exogenously introduced zinc, and their MR images were recorded and compared. The HEK-293 cell suspension was divided equally into two flasks after a 24-h treatment with 100 μM of compound 2 or Mn-TPPS4. A 200-μM portion of zinc pyrithione was then added to one of the samples and incubated for an additional 10 min. As in the solution studies, comparisons were made by using Mn-TPPS4 as a reference compound. In addition, an untreated cell sample was prepared as a control. The cell suspensions were pelleted by centrifugation, washed, and transferred into a multiwell plate for MRI analysis. A spin echo pulse sequence was used to acquire MRI images.
T1 and T2 were determined by a series of MR images with varied TR or TE, respectively. The values reported are the average from three separate experiments with standard deviations as indicated by the horizontal bars.

Series [3] can be described thus: Fluorescence metal ion selectivity. The note with it: 100 μM metal ion, 5 μM compound, 50 mM Hepes/100 mM KCl, pH 7.0, excitation 418 nm. The protocol:
Millipore water was used to prepare all aqueous solutions. All spectroscopic measurements were performed in buffered solutions containing 50 mM of the buffering species and 100 mM KCl adjusted to the desired pH. A glass electrode (Orion, Boston, Mass.), calibrated before each use, was used to determine solution pH. Solutions of Zn^2+ were prepared from 100 mM stocks of ZnCl2 in water. Absorption spectra were recorded on a 8453A diode array spectrophotometer (Hewlett-Packard, Palo Alto, Calif.) or a Cary 50 Bio UV-visible spectrophotometer (Varian, Palo Alto, Calif.), and fluorescence spectra were obtained with a Quanta Master 4 L-format scanning spectrofluorimeter (Photon Technology International, Lawrenceville, N.J.) equipped with an LPS-220B 75-W xenon lamp and power supply, an A-1010B lamp housing with integrated igniter, a switchable 814 photon-counting/analog photomultiplier detection unit, and a MD-5020 motor driver. Samples for absorption and emission measurements were held in 1×1-cm quartz cuvettes (3.5 mL volume; Stama, Atascadero, Calif.). […] Quantum yields were determined by reference to TPPS4 [0.16 in pH=7 aqueous solution]. […]
Even large excesses of Na^+, K^+, Ca^2+, and Mg^2+, which are biologically relevant, potentially competing, mobile metal ions, barely perturb the fluorescence of the zinc-free and zinc-bound forms of compound 1.

Series [4] in a line: Absorption spectrum in buffered neutral aqueous solution. The class given is physicochemical. Conditions: Soret band centered at 416 nm; 50 mM Hepes/100 mM KCl, pH 7.0. The protocol: Millipore water was used to prepare all aqueous solutions. All spectroscopic measurements were performed in buffered solutions containing 50 mM of the buffering species and 100 mM KCl adjusted to the desired pH. A glass electrode (Orion, Boston, Mass.), calibrated before each use, was used to determine solution pH. Solutions of Zn^2+ were prepared from 100 mM stocks of ZnCl2 in water. Absorption spectra were recorded on a 8453A diode array spectrophotometer (Hewlett-Packard, Palo Alto, Calif.) or a Cary 50 Bio UV-visible spectrophotometer (Varian, Palo Alto, Calif.), and fluorescence spectra were obtained with a Quanta Master 4 L-format scanning spectrofluorimeter (Photon Technology International, Lawrenceville, N.J.) equipped with an LPS-220B 75-W xenon lamp and power supply, an A-1010B lamp housing with integrated igniter, a switchable 814 photon-counting/analog photomultiplier detection unit, and a MD-5020 motor driver. Samples for absorption and emission measurements were held in 1×1-cm quartz cuvettes (3.5 mL volume; Stama, Atascadero, Calif.). […] Quantum yields were determined by reference to TPPS4 [0.16 in pH=7 aqueous solution].
The spectroscopic properties of compound 1 were evaluated in buffered neutral aqueous solution (50 mM Hepes/100 mM KCl, pH 7.0). […] Excitation was provided at 418 nm for the emission spectrum, and emission was detected at 648 nm for the excitation spectrum. […]

For series [5], the system named is intracellular Zn^2+ in HEK-293 cells. Nature of the series: Intracellular zinc imaging by fluorescence microscopy. In kind it is cell-based. The note with it: 5 μM 24 h, 40 μM Zn^2+/pyrithione 10 min. Here is the method:
The cell fluorescence imaging experiments were performed with an Axiovert 200M inverted epifluorescence microscope (Zeiss, Thomwood, N.Y.) equipped with an EM-CCD digital camera C9100 (Hamamatsu Hamamatsu City, Japan) and a MS200 XY Piezo Z stage (Applied Scientific Instruments, Eugene, Oreg.). An X-Cite 120 metal-halide lamp (EXFO, Quebec, Canada) was used as the light source. The fluorescence images were obtained by using a x63 oil immersion objective lenses and a customized optical filter (exciter: D425/50; emitter: E6001p; beamsplitter: 460dcxr; Chroma Technology, Rockingham, Vt.). The microscope was operated with Volocity software (Improvision, Lexington, Mass.).
Fixed cells were investigated by fluorescence imaging using a customized optical filter (exciter: D425/50; emitter: E6001p; beamsplitter: 460dcxr), which was designed to match the excitation and emission profiles of compound 1. The cell nuclei were costained with the blue fluorescent dye Hoechst 33258 (0.4 μM). The HEK-293 cells were incubated with 5 μM of compound 1 for 24 h before fixing. […] The insets show the corresponding bright-field images (Scale bars: 25 μm).

A further series deals with all cell lines tested. In words: Membrane permeability in cell lines. In kind it is cell-based.
The next series can be described thus: Fluorescence pH profile. In kind it is physicochemical. Conditions: pH 10.1 to pH 4.5; 5 μM in 100 mM KCl; excitation 416 nm, integrated 550 to 800 nm. The protocol:
The pH-sensitivity of compound 1 was then studied. In some cases, it may be advantageous to reduce fluorescence turn-on by protonation for fluorescent zinc(II) sensors, as protonation can diminish the sensitivity of the sensor to zinc by increasing the background signal intensity. […] The pH values of the solution were adjusted by adding an appropriate volume of HCl or KOH stock solution. The fluorescence spectrum was measured upon excitation at 416 nm, and the fluorescence intensity was integrated from 550 to 800 nm.

For series [6], the system named is HEK-293 cells. In words: Subcellular localization by manganese atomic absorption spectroscopy of cell fractions. The class given is cell-based. Here is the method: Cell monolayers were grown in 75-cm plates to 70% confluence and treated with 100 μM of either 2 or Mn-TPPS4, followed by incubation for 24 h. All fractionation steps were performed at 4° C. After twice pelleting by centrifugation (500×g) and washing with PBS, cells were lysed in a low-salt buffer and incubated on ice for 15 min. After centrifugation (420×g, 5 min) the pellet was resuspended in two packed-cell volumes of lysis buffer with 20 strokes of a 27-gauge syringe needle. After centrifugation (11,000×g, 20 min), the supernatant was retained (cytosolic fraction), and the nuclei were lysed in 0.42 M salt with 10 strokes of a 17-gauge syringe needle. After centrifugation (20,000×g, 5 min), the supernatant was obtained as the nuclear fraction.
Manganese atomic absorption spectroscopic analyses of samples were performed on an Aanalyst 300 instrument equipped with an HGA-800 graphite furnace (PerkinElmer, Wellesley, Mass.). Pyrolysis was performed at 1,400° C. for 30 s, and atomization was performed at 2,200° C. for 5 s.
To confirm the membrane permeability and further investigate the subcellular localization of compound 2, the cells were lysed, and nuclear and cytosolic fractions were extracted and analyzed by atomic absorption spectroscopy (AAS).

Series [7] concerns HEK-293 cells. Nature of the series: Cytotoxicity in HEK-293 suspension cells, cell density. In kind it is cell-based. Conditions: 100 μM, 24 h.
The mark [8] stands for this setting: HEK-293, 100 μM 24 h, no exogenous zinc.
[9] abbreviates: HEK-293, 100 μM 24 h, then 200 μM zinc pyrithione 10 min.

Procedure for all cell lines tested: Suspension cultures of HEK-293 enabled production of a sizeable cell pellet, which was then plated as an adherent monolayer for fluorescence imaging studies. The monolayer cultures were subcultured five times after the initial plating, grown to 70% confluence on glass cover slips and treated with compound 1 for fluorescence imaging. The cytotoxicity of compound 1 was evaluated in these adherent HEK-293 cells by incubating them with 5 μM of compound 1 for 24 h.

Consider `O=S(=O)([O-])c1ccc(-c2c3nc(c(-c4ccc(S(=O)(=O)[O-])cc4)c4ccc([n-]4)c(-c4ccc(S(=O)(=O)[O-])cc4)c4ccc([n-]4)c(-c4ccc(S(=O)(=O)[O-])cc4)c4nc2C=C4)C=C3)cc1.[Mn+3]` [Mn-TPPS4, reference compound], for which, in [1], the “zinc-induced change of MR signal in buffered solution” value is “almost no change” and the “zinc-induced T2 change at high ionic strength” value is “no zinc-induced T2 change”. In addition, in series [2] (setting [8]), the “T1 of cell pellet, absence of zinc” value is given as 1.1 s and the “T2 of cell pellet, non zinc-treated samples” value stood at 107 ms. In addition, the “T2 of cell pellet, zinc-treated samples” value in series [2] (HEK-293, 100 μM 24 h) is 94 ms. Further, the “T1 of cell pellet, presence of zinc” value in series [2] (setting [9]) was found to be 1.0 s.
On to `O=S(=O)(O)c1ccc(-c2c3nc(c(-c4ccc(S(=O)(=O)O)cc4)c4ccc([nH]4)c(-c4c(NCCN(Cc5ccccn5)Cc5ccccn5)cccc4NCCN(Cc4ccccn4)Cc4ccccn4)c4nc(c(-c5ccc(S(=O)(=O)O)cc5)c5ccc2[nH]5)C=C4)C=C3)cc1` [compound 1, (DPA-C2)2-TPPS3], for which the “selectivity of fluorescence turn-on for Zn^2+ over other metal ions” value in series [3] was “selective for Zn^2+ over many other monovalent and divalent metal ions”. In [4], the “extinction coefficient (ε) of Soret band” value is on record as 250,700 M^−1·cm^−1. Further, in series [5], the “change of intracellular red fluorescence upon addition of Zn^2+” value is “significant increase in the red fluorescence intensity”. Besides, the membrane permeability result in the series on all cell lines tested is on record as “membrane-permeable”. Further, the “fluorescence increase on acidification” value in the series “Fluorescence pH profile” is “less than a factor of two”.
Turning to (DPA-C2)2-Mn(III)TPPS3 [compound 2], in series [1], the “zinc-induced change of MR signal in buffered solution” value was “lowers the MR signal intensity” and the “zinc-induced T2 change at high ionic strength” value is recorded as “zinc-induced enhancement of T2 relaxation”. Also, in [2] (setting [8]), the “T1 of cell pellet, zinc-free sample” value is reported as 510 ms and the “T2 of cell pellet, non zinc-treated samples” value is given as 69 ms. Further, the “T2 of cell pellet, zinc-treated samples” value in series [2] (HEK-293, 100 μM 24 h) turned out to be 25.0 ms. The “T1 of cell pellet, zinc-containing sample” value in series [2] (setting [9]) was determined as 80 ms. Moreover, the “cell membrane permeability from relative increase in T1-weighted MR signal” value in series [2] (HEK-293 cells, 100 μM, 24 h, TR=100 ms, TE=10 ms) is listed as “greater cell membrane permeability than Mn-TPPS4”. Further, the cell membrane permeability entry in the series on HEK-293 cells [6] (AAS of lysed cell fractions) is reported as “cell membrane-permeable”. In addition, the “Mn in cytosol (AAS)” value in the series with HEK-293 cells [6] (cells treated with 100 μM, 24 h, cytosolic fraction) stood at 0.78 mg Mn/liter. Besides, in the series with HEK-293 cells [6] (cells treated with 100 μM, 24 h, nuclear fraction), the “Mn in nuclear fraction (AAS)” value was determined as 5.62 mg Mn/liter. The “cytotoxicity (cell density vs untreated control cells)” value in the series on HEK-293 cells [7] is listed as “little cytoxicity”.
